Assay: mn = molality of the nth substance listed, in mol/kg
Details: Liquid

[I-].[Li+] [lithium iodide] + O
Details | mass density [kg/m3]
296.95 K, 2530 kPa, m1 = 1.605 | 1145.62
296.95 K, 7845 kPa, m1 = 1.605 | 1148.05
296.95 K, 17808 kPa, m1 = 1.605 | 1152.57
296.95 K, 25811 kPa, m1 = 1.605 | 1156.03
297.35 K, 2354 kPa, m1 = 0.6621 | 1061.06
297.35 K, 12415 kPa, m1 = 0.6621 | 1065.64
297.35 K, 21241 kPa, m1 = 0.6621 | 1069.52
297.35 K, 29243 kPa, m1 = 0.6621 | 1072.92
298.15 K, 101.33 kPa, m1 = 0.0906 | 1005.8
298.15 K, 101.33 kPa, m1 = 0.2832 | 1024.34
298.15 K, 101.33 kPa, m1 = 0.6621 | 1059.93
298.15 K, 101.33 kPa, m1 = 1.605 | 1144.13
298.15 K, 101.33 kPa, m1 = 3.089 | 1266.24
308.15 K, 101.33 kPa, m1 = 0.0906 | 1002.8
308.15 K, 101.33 kPa, m1 = 0.2832 | 1021.1
308.15 K, 101.33 kPa, m1 = 0.6621 | 1056.4
308.15 K, 101.33 kPa, m1 = 1.605 | 1139.99
308.15 K, 101.33 kPa, m1 = 3.089 | 1261.08
310.65 K, 2040 kPa, m1 = 3.089 | 1260.87
310.65 K, 17475 kPa, m1 = 3.089 | 1267.92
310.65 K, 24026 kPa, m1 = 3.089 | 1270.75
313 K, 3020 kPa, m1 = 0.2832 | 1020.66
313 K, 10866 kPa, m1 = 0.2832 | 1024.09
313 K, 21163 kPa, m1 = 0.2832 | 1028.44
313 K, 31204 kPa, m1 = 0.2832 | 1032.59
313.75 K, 2275 kPa, m1 = 0.0906 | 1001.71
313.75 K, 12572 kPa, m1 = 0.0906 | 1006.16
313.75 K, 28596 kPa, m1 = 0.0906 | 1012.88
318.15 K, 101.33 kPa, m1 = 0.0906 | 998.97
318.15 K, 101.33 kPa, m1 = 0.2832 | 1017.22
318.15 K, 101.33 kPa, m1 = 0.6621 | 1052.27
318.15 K, 101.33 kPa, m1 = 1.605 | 1135.39
318.15 K, 101.33 kPa, m1 = 3.089 | 1255.57
328.15 K, 101.33 kPa, m1 = 0.0906 | 994.42
328.15 K, 101.33 kPa, m1 = 0.2832 | 1012.6
328.15 K, 101.33 kPa, m1 = 0.6621 | 1047.5
328.15 K, 101.33 kPa, m1 = 1.605 | 1130.28
328.15 K, 101.33 kPa, m1 = 3.089 | 1249.72
338.15 K, 101.33 kPa, m1 = 0.0906 | 989.22
338.15 K, 101.33 kPa, m1 = 0.2832 | 1007.35
338.15 K, 101.33 kPa, m1 = 0.6621 | 1042.13
338.15 K, 101.33 kPa, m1 = 1.605 | 1124.64
338.15 K, 101.33 kPa, m1 = 3.089 | 1243.52
348.15 K, 101.33 kPa, m1 = 0.0906 | 983.48
348.15 K, 101.33 kPa, m1 = 0.2832 | 1001.55
348.15 K, 101.33 kPa, m1 = 0.6621 | 1036.22
348.15 K, 101.33 kPa, m1 = 1.605 | 1118.49
348.15 K, 101.33 kPa, m1 = 3.089 | 1236.98
348.4 K, 2157 kPa, m1 = 0.6621 | 1037.06
348.4 K, 11670 kPa, m1 = 0.6621 | 1041.32
348.4 K, 23850 kPa, m1 = 0.6621 | 1046.48
348.4 K, 29910 kPa, m1 = 0.6621 | 1048.86
348.45 K, 3334 kPa, m1 = 0.2832 | 1002.87
348.45 K, 13808 kPa, m1 = 0.2832 | 1007.4
348.45 K, 22536 kPa, m1 = 0.2832 | 1011.08
348.45 K, 27851 kPa, m1 = 0.2832 | 1013.21
348.5 K, 3589 kPa, m1 = 1.605 | 1119.98
348.5 K, 10787 kPa, m1 = 1.605 | 1123.27
348.5 K, 21516 kPa, m1 = 1.605 | 1128.02
348.5 K, 27694 kPa, m1 = 1.605 | 1130.57
349.05 K, 2275 kPa, m1 = 0.0906 | 983.91
349.05 K, 7668 kPa, m1 = 0.0906 | 986.28
349.05 K, 16573 kPa, m1 = 0.0906 | 990.13
349.05 K, 21241 kPa, m1 = 0.0906 | 992.14
373.2 K, 6276 kPa, m1 = 3.089 | 1222.39
373.2 K, 17358 kPa, m1 = 3.089 | 1227.68
373.2 K, 24674 kPa, m1 = 3.089 | 1230.96
398.15 K, 3432 kPa, m1 = 0.0906 | 949.25
398.15 K, 5511 kPa, m1 = 0.6621 | 1002.67
398.15 K, 8728 kPa, m1 = 0.0906 | 951.87
398.15 K, 15593 kPa, m1 = 0.6621 | 1007.74
398.15 K, 16181 kPa, m1 = 0.0906 | 955.54
398.15 K, 22554 kPa, m1 = 0.6621 | 1011.13
398.15 K, 22710 kPa, m1 = 0.0906 | 958.45
398.15 K, 29087 kPa, m1 = 0.6621 | 1013.99
398.2 K, 2942 kPa, m1 = 1.605 | 1082.97
398.2 K, 10787 kPa, m1 = 1.605 | 1087.05
398.2 K, 21025 kPa, m1 = 1.605 | 1092.08
398.2 K, 28753 kPa, m1 = 1.605 | 1095.49
398.3 K, 3511 kPa, m1 = 0.2832 | 967.1
398.3 K, 11925 kPa, m1 = 0.2832 | 971.24
398.3 K, 21398 kPa, m1 = 0.2832 | 975.83
398.3 K, 30636 kPa, m1 = 0.2832 | 979.93
448.15 K, 4570 kPa, m1 = 3.089 | 1157.85
448.15 K, 4903 kPa, m1 = 0.2832 | 922.17
448.15 K, 14573 kPa, m1 = 3.089 | 1163.98
448.15 K, 15593 kPa, m1 = 0.2832 | 928.54
448.15 K, 22869 kPa, m1 = 3.089 | 1168.32
448.15 K, 24340 kPa, m1 = 0.2832 | 933.52
448.3 K, 3668 kPa, m1 = 0.0906 | 902.88
448.3 K, 7924 kPa, m1 = 0.0906 | 905.5
448.3 K, 15436 kPa, m1 = 0.0906 | 910.16
448.3 K, 21810 kPa, m1 = 0.0906 | 913.8
448.33 K, 4805 kPa, m1 = 0.6621 | 957.8
448.33 K, 15200 kPa, m1 = 0.6621 | 963.27
448.33 K, 24026 kPa, m1 = 0.6621 | 968.45
448.33 K, 28675 kPa, m1 = 0.6621 | 970.94
448.45 K, 3099 kPa, m1 = 1.605 | 1038.18
448.45 K, 10375 kPa, m1 = 1.605 | 1042.6
448.45 K, 25497 kPa, m1 = 1.605 | 1050.41
472.53 K, 8081 kPa, m1 = 0.2832 | 897.8
472.53 K, 16985 kPa, m1 = 0.2832 | 904
472.53 K, 23614 kPa, m1 = 0.2832 | 908.3
474.75 K, 6943 kPa, m1 = 1.605 | 1014.9
474.75 K, 13317 kPa, m1 = 1.605 | 1020.2
474.75 K, 24595 kPa, m1 = 1.605 | 1027
475 K, 6198 kPa, m1 = 0.6621 | 929.3
475 K, 15926 kPa, m1 = 0.6621 | 936.2
475 K, 24517 kPa, m1 = 0.6621 | 941.7
479.05 K, 7590 kPa, m1 = 3.089 | 1129.2
479.05 K, 16907 kPa, m1 = 3.089 | 1135.6
479.05 K, 21771 kPa, m1 = 3.089 | 1138.5
521.05 K, 7924 kPa, m1 = 0.6621 | 872.4
521.05 K, 11846 kPa, m1 = 0.6621 | 876.3
521.05 K, 18221 kPa, m1 = 0.6621 | 882.3
522.63 K, 9473 kPa, m1 = 0.2832 | 834.6
522.63 K, 21516 kPa, m1 = 0.2832 | 846.6
522.63 K, 27047 kPa, m1 = 0.2832 | 851.1
522.91 K, 8493 kPa, m1 = 1.605 | 961.6
522.91 K, 14867 kPa, m1 = 1.605 | 967.1
522.91 K, 20050 kPa, m1 = 1.605 | 971.2
523.15 K, 7178 kPa, m1 = 3.089 | 1079.91
523.15 K, 12415 kPa, m1 = 3.089 | 1084.49
523.15 K, 21810 kPa, m1 = 3.089 | 1091.96
572.75 K, 12415 kPa, m1 = 0.6621 | 795.1
572.75 K, 19201 kPa, m1 = 0.6621 | 806
572.75 K, 24419 kPa, m1 = 0.6621 | 813.4
573.15 K, 11591 kPa, m1 = 1.605 | 896.3
573.15 K, 16338 kPa, m1 = 1.605 | 902.6
573.15 K, 20672 kPa, m1 = 1.605 | 907.3
575.75 K, 15022 kPa, m1 = 0.2832 | 750.9
575.75 K, 19201 kPa, m1 = 0.2832 | 758.8
575.75 K, 24516 kPa, m1 = 0.2832 | 767.7
600.25 K, 12650 kPa, m1 = 3.089 | 1019.35
600.25 K, 18534 kPa, m1 = 3.089 | 1025.9
600.25 K, 22143 kPa, m1 = 3.089 | 1029.61

Source: the NIST ThermoML archive (doi:10.1016/j.jct.2004.06.001)
